The record followed here is US9029337B2, “Modulation of factor 7 expression” (Isis Pharmaceuticals, Inc., priority 2007, dated 2015).

Strand notation (5' to 3'): a small letter for the sugar, then the base; units joined by * are phosphorothioate-linked, units joined directly phosphodiester-linked; [ ] holds rarer units or linkages, { } end groups; capitals alone tell only the bases. e = 2'-O-(2-methoxyethyl) (MOE); [5mC] = 5-methylcytosine; d = 2'-deoxy (DNA)

The test system of the first series is human Factor 7 mRNA. Put plainly: Antisense inhibition of human Factor 7 mRNA in HepB3 cells, 50 nM antisense oligonucleotide, lipofectin. It is filed as cell-based. Particulars: Table 1, 50 nM, lipofectin, approximately 24 hours, relative to untreated control cells. In outline: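 Cells plated at 4,000 per well were transfected and harvested after approximately 24 hours of treatment. Transcript levels, measured with primer probe set RTS 2927, were normalised to total RNA by RIBOGREEN®. Values are percent inhibition relative to untreated control cells.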
In the case of “407617 (antisense eT*e[5mC]*e[5mC]*eA*e[5mC]*dA*dT*dG*dG*dA*dT*dA*dT*dT*d[5mC]*eA*eA*e[5mC]*eT*eG) [compound 407617]”, the “% Inhibition” value was found to be 67%.

In the case of “407603 (antisense eT*eA*eA*eG*eA*dA*dA*dT*d[5mC]*d[5mC]*dA*dG*dA*dA*d[5mC]*eA*eG*e[5mC]*eT*eT) [compound 407603]”, the “% Inhibition” value is on record as 54%. The same measure, in the same setting: the figure for “407665 (antisense eG*eT*eT*eA*e[5mC]*dG*dA*dA*dG*dA*d[5mC]*dT*dG*dG*dG*eA*eA*eA*eT*eG) [compound 407665]” is 29%; for “407920 (antisense eT*eG*eA*eG*e[5mC]*dG*d[5mC]*dA*dT*dG*dA*dG*d[5mC]*dT*dT*eT*eT*eG*e[5mC]*eA) [compound 407920]” it is 65%; for “407952 (antisense eG*eG*eA*eT*e[5mC]*d[5mC]*dT*dG*dG*dG*dA*dG*d[5mC]*dT*dA*e[5mC]*eA*eG*e[5mC]*e[5mC]) [compound 407952]” it is 41%. The same measure, in the same setting: the same measure for “407612 (antisense eA*eG*eA*eT*e[5mC]*dA*dG*d[5mC]*dT*dG*dG*dT*d[5mC]*dA*dT*e[5mC]*e[5mC]*eT*eT*eG) [compound 407612]”: 82%.

Still in this series, the particulars now being: Table 6, 50 nM, lipofectin, approximately 24 hours.
In the case of “422117 (antisense eG*eG*eA*eA*eG*dA*dA*dG*dG*dG*dA*d[5mC]*dG*dG*dA*eA*eG*eG*eT*eG) [compound 422117]”, the “% Inhibition” value amounted to 1%. Same read-out and setting: the same measure for “422188 (antisense eG*e[5mC]*eG*dG*dA*dA*dG*dA*dA*dG*dG*dG*dA*d[5mC]*dG*dG*dA*eA*eG*eG) [compound 422188]”: 37%.

The same series, now with this note: gapmers targeted to nucleobases 4868 to 4899 of SEQ ID NO: 1, Table 8.
As to “422298 (antisense eG*e[5mC]*d[5mC]*d[5mC]*dG*dA*dG*dT*dT*d[5mC]*dT*dG*d[5mC]*dA*dG*eG*eA*eG*e[5mC]*eG) [compound 422298]”, the “% Inhibition of human Factor 7 mRNA levels” value came to 62%. “422214 (antisense eT*eT*e[5mC]*dT*dG*d[5mC]*dA*dG*dG*dA*dG*d[5mC]*dG*dG*d[5mC]*d[5mC]*dT*eA*eA*eA) [compound 422214]”: the “% Inhibition of human Factor 7 mRNA levels” value was 60%.

In the case of “422148 (antisense eG*eG*eA*eG*e[5mC]*d[5mC]*d[5mC]*dG*dA*dG*dT*dT*d[5mC]*dT*dG*e[5mC]*eA*eG*eG*eA) [compound 422148]”, the “% Inhibition of human Factor 7 mRNA levels” value was 57%.

The same series, now with this note: lipofectin, 50 nM antisense oligonucleotide, approximately 24 hours, Factor 7 mRNA by real-time RT-PCR (RTS 2927), relative to untreated control.
With “416563 (antisense eG*e[5mC]*e[5mC]*eT*eG*d[5mC]*dA*dT*dT*dT*d[5mC]*d[5mC]*d[5mC]*dA*dT*eT*eG*eG*e[5mC]*eA) [compound 416563]”, the “% Inhibition” value is listed as 0%. For “416513 (antisense e[5mC]*eT*eG*eA*eT*dG*dT*dG*dA*dA*dA*dA*d[5mC]*d[5mC]*dG*eG*e[5mC]*eA*eT*eG) [compound 416513]”, the “% Inhibition” value is listed as 37%.

As for “416520 (antisense e[5mC]*e[5mC]*e[5mC]*eT*e[5mC]*dT*dG*d[5mC]*dA*dA*dA*dT*dA*dT*dG*eG*eG*eA*e[5mC]*e[5mC]) [compound 416520]”, the “% Inhibition” value came to 14%. The same measure, in the same setting: the same measure for “416430 (antisense eG*e[5mC]*eA*eG*e[5mC]*dT*d[5mC]*d[5mC]*dT*d[5mC]*d[5mC]*dA*dG*dG*dA*eA*e[5mC]*eG*e[5mC]*eG) [compound 416430]”: 52%; for “416530 (antisense eA*eG*eG*eG*eT*dA*dG*d[5mC]*d[5mC]*dT*dT*dT*dG*d[5mC]*d[5mC]*eT*eT*eG*eG*e[5mC]) [compound 416530]”: 35%.

In the case of “416536 (antisense e[5mC]*eG*eG*eG*eA*dA*dG*dG*d[5mC]*d[5mC]*dT*dG*d[5mC]*d[5mC]*d[5mC]*eT*eG*e[5mC]*eA*eG) [compound 416536]”, the “% Inhibition” value was determined as 23%. The same measure, in the same setting: the same measure for “416486 (antisense eA*eT*eT*eG*eA*d[5mC]*dA*dA*dG*dG*dG*d[5mC]*dT*dG*dT*eG*eG*e[5mC]*eA*eG) [compound 416486]”: 12%.

“416538 (antisense e[5mC]*eG*eT*eG*eG*dA*d[5mC]*dT*dG*dA*dT*d[5mC]*d[5mC]*dA*dA*eA*eG*eG*eA*e[5mC]) [compound 416538]”: the “% Inhibition” value worked out at 46%. Same read-out and setting: the figure for “416468 (antisense eT*eG*eG*eG*eA*dG*dA*d[5mC]*d[5mC]*d[5mC]*dT*dG*dG*dT*dG*eT*eA*e[5mC]*eA*e[5mC]) [compound 416468]” is 46%. Take “416537 (antisense eT*eG*eA*e[5mC]*e[5mC]*dA*d[5mC]*dT*d[5mC]*dT*dT*d[5mC]*d[5mC]*dG*dA*eG*e[5mC]*eA*eG*e[5mC]) [compound 416537]”: the “% Inhibition” value stood at 55%.

Still in this series, the particulars now being: oligonucleotides targeted to nucleobases 11830 to 11869 of SEQ ID NO: 1 (Table 9).
Take “422245 (antisense eT*eG*dA*dG*dG*dA*dG*dA*d[5mC]*dA*dA*dT*dG*dG*dT*e[5mC]*eA*eG*eG*eG) [compound 422245]”: the “% Inhibition (human Factor 7 mRNA levels)” value amounted to 24%. The same measure, in the same setting: the same measure for “422159 (antisense eA*eA*eT*dG*dG*dT*d[5mC]*dA*dG*dG*dG*d[5mC]*dT*dG*dG*dT*dT*eT*eT*eG) [compound 422159]”: 45%; for “422092 (antisense eA*eT*eG*eG*eT*d[5mC]*dA*dG*dG*dG*d[5mC]*dT*dG*dG*dT*eT*eT*eT*eG*eG) [compound 422092]”: 36%. On to “422247 (antisense eG*e[5mC]*dT*dG*dA*dG*dG*dA*dG*dA*d[5mC]*dA*dA*dT*dG*eG*eT*e[5mC]*eA*eG) [compound 422247]”, for which the “% Inhibition (human Factor 7 mRNA levels)” value is on record as 36%. The same measure, in the same setting: the figure for “422160 (antisense e[5mC]*eA*eA*dT*dG*dG*dT*d[5mC]*dA*dG*dG*dG*d[5mC]*dT*dG*dG*dT*eT*eT*eT) [compound 422160]” is 42%; for “422169 (antisense e[5mC]*eT*eG*dA*dG*dG*dA*dG*dA*d[5mC]*dA*dA*dT*dG*dG*dT*d[5mC]*eA*eG*eG) [compound 422169]” it is 56%. On the same count and under the same terms, the same measure for “422237 (antisense e[5mC]*eA*dA*dT*dG*dG*dT*d[5mC]*dA*dG*dG*dG*d[5mC]*dT*dG*eG*eT*eT*eT*eT) [compound 422237]”: 50%.

The same series, now with this note: oligonucleotides targeted to nucleobases 13760 to 13789 of SEQ ID NO: 1 (Table 10).
“422113 (antisense eG*e[5mC]*e[5mC]*eA*e[5mC]*d[5mC]*d[5mC]*dG*d[5mC]*d[5mC]*dG*dG*d[5mC]*dT*d[5mC]*eT*eG*e[5mC]*eT*e[5mC]) [compound 422113]”: the “% Inhibition (human Factor 7 mRNA levels)” value is 68%. Turning to “422258 (antisense eG*e[5mC]*d[5mC]*dA*d[5mC]*d[5mC]*d[5mC]*dG*d[5mC]*d[5mC]*dG*dG*d[5mC]*dT*d[5mC]*eT*eG*e[5mC]*eT*e[5mC]) [compound 422258]”, the “% Inhibition (human Factor 7 mRNA levels)” value worked out at 66%.

The series is the same for the next values; noted with them: oligonucleotides targeted to nucleobases 14707 to 14732 of SEQ ID NO: 1 (Table 11).
As for “422204 (antisense eG*e[5mC]*eA*dG*d[5mC]*d[5mC]*dT*dG*dA*dG*dG*d[5mC]*d[5mC]*dA*dG*d[5mC]*dA*eG*eA*eT) [compound 422204]”, the “% Inhibition (human Factor 7 mRNA levels)” value was 72%. The same measure, in the same setting: the figure for “422279 (antisense eA*eG*d[5mC]*d[5mC]*dT*dG*dA*dG*dG*d[5mC]*d[5mC]*dA*dG*d[5mC]*dA*eG*eA*eT*e[5mC]*eA) [compound 422279]” is 56%.

Staying with this series, now noted: oligonucleotides targeted to nucleobases 15098 to 15122 of SEQ ID NO: 1 (Table 12).
As to “422287 (antisense e[5mC]*eA*dG*d[5mC]*dA*d[5mC]*dA*d[5mC]*dA*dT*dG*dG*dA*dG*dT*e[5mC]*eA*eG*e[5mC]*eA) [compound 422287]”, the “% Inhibition (human Factor 7 mRNA levels)” value is recorded as 41%.

As usually defined, the % Inhibition is the relative decrease from the control value, in per cent.
